Measurements: US4232007A, “Oral antilipemic agents” (Taiho Pharmaceutical Company Ltd., priority 1975, dated 1980)

Tests used:
plasma = test: Recalcification test; assay type: biochemical, rat; details: 58 sec. at 0 μg
Protocol: A 0.5 ml quantity of 0.1 M sodium citrate is added to 4.5 ml of blood of rat to obtain plasma. […] Thereafter 0.1 ml of 0.025 M CaCl2 saline solution is added to coagulate the blood sample.

lipids in blood [1] = details: known drugs, background; cited from earlier work
anticoagulant activity = details: cited from earlier work
Rat = test: Acute toxicity test; assay type: in vivo; details: for LD50: 72 hours after administration
lipids in blood [2] = test: Reduction of lipids in blood of rats given surfactant Triton WR-1339, oral administration; assay type: in vivo, rat; details: rats given Triton WR-1339 200 mg/kg i.v., compound 50 mg/kg oral; for Free cholesterol: normal rat 25.7 ± 3.7, rat given surfactant 114.2 ± 28.8; for β-Lipoprotein: normal rat 44.3 ± 1.3, rat given surfactant 141.7 ± 28.8; for Triglyceride: normal rat 44.7 ± 3.5, rat given surfactant 780.1 ± 354.5; for Total cholesterol: normal rat 89.9 ± 10.4, rat given surfactant 235.3 ± 41.7; for Total lipid: normal rat 220 ± 12, rat given surfactant 1033 ± 330
Protocol: A 100 g quantity of the methyl ester of polyglutamic acid (average molecular weight: 100,000) is dissolved in dichloroethane to a concentration of 10 wt.%. To the solution is added a mixture of 70 ml of 2 N sodium hydroxide solution, 140 ml of methanol and 140 ml of isopropanol,and the resulting mixture is stirred at room temperature for about 8 hours to effect demethylation. The product is then passed through a molecular sieve (Sephadex G-200) for the classification of molecular weight to separate a portion ranging from 80,000 to 100,000 in molecular weight (average molecular weight: 90,000). The separated portion is concentrated under reduced pressure and divided into two portions of equivalent weight. To one of the portions is added methanol and the precipitate formed is separated by filtration and dried to obtain the sodium salt of polyglutamic acid. To the other portion is added concentrated hydrochloric acid until the pH thereof reaches 4, then the solution is cooled with ice, whereby a precipitate is formed. The precipitate is separated by filtration, washed with diluted hydrochloric acid, thereafter with methanol and dried to obtain polyglutamic acid. Each powder (200 mg) of polyglutamic acid and sodium salt thereof thus obtained is mixed with 290 mg of milk sugar, 500 mg of corn starch and 10 mg of hydroxypropyl cellulose and the mixtures obtained are granulated respectively. The granules are suspended in water. Two kinds of the suspensions are orally administered to 7 rats in a dose of 50 mg/kg, respectively, to determine the reduction of lipids in blood.
The separated portion is concentrated under reduced pressure, methanol is added to the concentrate and the resulting precipitate is filtered off and dried to obtain the sodium salt of the copolymer of glutamic acid and aspartic acid. With the powder (200 mg) thus obtained are mixed 290 mg of milk sugar, 500 mg of corn starch and 10 mg of hydroxypropyl cellulose. The mixture is granulated and the granules are suspended in an isotonic sodium chloride solution.

[3] = amount 100 μg, ditto mark = No coagulation

With dextran sulfate as the substance, how does the Coagulation time (plasma; amount 0.1 μg) read?
The Coagulation time was 57 s.

And the Coagulation time (plasma; amount 0.3 μg)?
The Coagulation time was 62 s.

What about the Coagulation time (plasma; amount 0.5 μg) of the same substance?
The Coagulation time was 61 s.

What about the Coagulation time (plasma; amount 1 μg) of the same substance?
The Coagulation time was 117 s.

And the Coagulation time (plasma; amount 10 μg)?
The Coagulation time was 172 s.

What about the Coagulation time (plasma; [3]) of the same substance?
Its Coagulation time is “No coagulation”.

And the “reducing lipids in blood” value (lipids in blood [1])?
Its value is “effective in reducing lipids in blood”.

And the “anticoagulant activity as a side effect” value (anticoagulant activity)?
Its value is “very high anticoagulant activity”.

Which results are given for heparin?
LD50 (Rat; intravenous): 0.73 g/kg; LD50 (Rat; oral): 1.95 g/kg; Coagulation time (plasma; amount 0.1 μg): 62 s; Coagulation time (plasma; amount 0.3 μg): 145 s; Coagulation time (plasma; amount 0.5 μg): 168 s; Coagulation time (plasma; amount 1 μg): 285 s; Coagulation time (plasma; amount 10 μg): No coagulation; reducing lipids in blood (lipids in blood [1]): effective in reducing lipids in blood; anticoagulant activity as a side effect (anticoagulant activity): very high anticoagulant activity

What does the source list for polyglutamic acid?
Free cholesterol (lipids in blood [2]): 38.8 ± 11.7 mg/dl of plasma; β-Lipoprotein (lipids in blood [2]): 61.9 ± 29.0 mg/dl of plasma; Triglyceride (lipids in blood [2]): 103.3 ± 67.2 mg/dl of plasma; Total cholesterol (lipids in blood [2]): 118.1 ± 35.3 mg/dl of plasma; Total lipid (lipids in blood [2]): 373 ± 132 mg/dl of plasma; toxicity compared with heparin (Rat; Table 2): much lower toxicity than heparin; LD50 (Rat; intravenous): 2.05 g/kg; LD50 (Rat; oral): 6 g/kg; Coagulation time (plasma; amount 0.1 μg): 55 s; Coagulation time (plasma; amount 0.3 μg): 58 s; Coagulation time (plasma; amount 0.5 μg): 56 s; Coagulation time (plasma; amount 1 μg): 62 s; Coagulation time (plasma; amount 10 μg): 58 s; Coagulation time (plasma; [3]): 62 s; Coagulation time (plasma; amount 500 μg, ditto mark = No coagulation): 100 s; Coagulation time (plasma; amount 1000 μg, ditto mark = No coagulation): 151 s; Coagulation time (plasma; amount 2000 μg, ditto mark = No coagulation): 250 s

Which Free cholesterol (lipids in blood [2]) does the source give for sodium salt of polyglutamic acid here?
Its Free cholesterol is 40.0 ± 11.4 mg/dl of plasma.

And the β-Lipoprotein (lipids in blood [2])?
The β-Lipoprotein was 63.4 ± 16.9 mg/dl of plasma.

What about the Triglyceride (lipids in blood [2]) of the same substance?
Its Triglyceride is 92.0 ± 42.8 mg/dl of plasma.

And the Total cholesterol (lipids in blood [2])?
The Total cholesterol was 121.8 ± 18.9 mg/dl of plasma.

What about the Total lipid (lipids in blood [2]) of the same substance?
Its Total lipid is 393 ± 66 mg/dl of plasma.
